Our source for the IC50 and viability, T/C values is PubChem BioAssay AID1919017 (Molecular Pharmacology Branch, DTP, NCI, 2023).

pIC50: −log10 of the molar value. Values joined by “and” are separate entries in the source; they are usually repeats but may differ in a detail not shown here. Equal values may be shown once.

Usually pIC50 stands for the negative decadic logarithm of the IC50, by convention in mol/L. As usually defined, the viability, T/C is the result in the treated group divided by that in the control group, in per cent.

The subject of this experiment is SW1271 complex spheroids with HUVEC/MSC, growth, % test/control. Nature of the experiment: Anticancer human tumor SW1271 cell line growth inhibition [AhR].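 For all read-outs here: spheroids exposed to agents for 7 days before readout.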 Particulars: for viability, T/C: stronger effect = lower value. The gist of the method:
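Spheroids combined tumor cells with HUVEC endothelial cells and human MSCs as stroma. AhR antagonists were paired with standard or investigational drugs, each dosed in half-log steps down from near clinical Cmax, or from 10 microM where Cmax was unknown.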

As for `Nc1ncn(C2CC(O)C(CO)S2)c(=O)n1` (centres undefined) + Cc1cncc(-c2nc(NCCc3c[nH]c4ccccc34)c3ncn(C(C)C)c3n2)c1, the pIC50 (curve of first compound, second compound 0.1 µM) was below 6.52; the pIC50 (curve of first compound, second compound 0.316 µM) was below 6.52; the pIC50 (curve of first compound, second compound 1 µM) was below 6.52; the pIC50 (curve of first compound, second compound 3.16 µM) was below 6.52; the pIC50 (curve of first compound, second compound 10 µM) was above 9.02. Besides, the viability, T/C by setting is: (second compound 0.1 µM, first compound 0.000949 µM) 73.1%; (second compound 0.1 µM, first compound 0.003 µM) 93.7%; (second compound 0.1 µM, first compound 0.00949 µM) 97.1%; (second compound 0.1 µM, first compound 0.03 µM) 90.9%; (second compound 0.1 µM, first compound 0.0949 µM) 99.6%; (second compound 0.1 µM, first compound 0.3 µM) 98.5%. For the same compound, the viability, T/C (second compound 0.316 µM, first compound 0.000949 µM) was 94.2%; the viability, T/C (second compound 0.316 µM, first compound 0.003 µM) is 84.2%; the viability, T/C (second compound 0.316 µM, first compound 0.00949 µM) is 81.8%; the viability, T/C (second compound 0.316 µM, first compound 0.03 µM) is 84.8%; the viability, T/C (second compound 0.316 µM, first compound 0.0949 µM) was 101%; the viability, T/C (second compound 0.316 µM, first compound 0.3 µM) was 90.9%. Moreover, the viability, T/C was 93.8% (second compound 1 µM, first compound 0.000949 µM); 104% (second compound 1 µM, first compound 0.003 µM); 104% (second compound 1 µM, first compound 0.00949 µM); 98.7% (second compound 1 µM, first compound 0.03 µM); 96.9% (second compound 1 µM, first compound 0.0949 µM); 90.5% (second compound 1 µM, first compound 0.3 µM). Besides, the viability, T/C (second compound 3.16 µM, first compound 0.000949 µM) is 94.1%; the viability, T/C (second compound 3.16 µM, first compound 0.003 µM) was 86.4%; the viability, T/C (second compound 3.16 µM, first compound 0.00949 µM) was 86%; the viability, T/C (second compound 3.16 µM, first compound 0.03 µM) was 82.3%; the viability, T/C (second compound 3.16 µM, first compound 0.0949 µM) is 74.2%; the viability, T/C (second compound 3.16 µM, first compound 0.3 µM) is 78.4%. For the same compound, the viability, T/C was 45.5% (second compound 10 µM, first compound 0.000949 µM); 44.8% (second compound 10 µM, first compound 0.003 µM); 45.6% (second compound 10 µM, first compound 0.00949 µM); 39.8% (second compound 10 µM, first compound 0.03 µM); 49.3% (second compound 10 µM, first compound 0.0949 µM); 43.9% (second compound 10 µM, first compound 0.3 µM).
On to `CC[C@@]1(O)C(=O)OCc2c1cc1n(c2=O)Cc2cc3c(CN(C)C)c(O)ccc3nc2-1`, for which the viability, T/C was 105% and 80.9% and 102% (compound 0.000316 µM); 108% and 64.1% and 91.1% (compound 0.001 µM); 80.9% and 87% and 83.4% (compound 0.00316 µM); 91.5% and 70% and 96.8% (compound 0.01 µM); 89% and 65% and 78.6% (compound 0.0316 µM); 74.6% and 45.2% and 70% (compound 0.1 µM). Besides, the pIC50 (curve of compound) is < 7.00 and 7.12.
As for `O=C(C=Cn1cnc(-c2cc(C(F)(F)F)cc(C(F)(F)F)c2)n1)NNc1cnccn1`, the viability, T/C (compound 0.00949 µM) was 95.2% and 89.5% and 105%; the viability, T/C (compound 0.03 µM) was 92.7% and 78.8% and 61.8%; the viability, T/C (compound 0.0949 µM) was 79.7% and 88.9% and 77.8%; the viability, T/C (compound 0.3 µM) is 78.9% and 65.1% and 64.9%; the viability, T/C (compound 0.949 µM) was 55% and 57% and 44.6%; the viability, T/C (compound 3 µM) was 42.1% and 41.2% and 35.7%. The pIC50 (curve of compound) is 5.78 and 5.84 and 6.15.
